One test relates to COLO205 cells. The test can be described thus: Cell proliferation assay (COLO205), Cell-titer Glo. To be noted: Homo sapiens, COLO 205, 120 h incubation. Format: cell-based. Put shortly:
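Cells seeded 2000/well overnight, then exposed to compound at 30000 down to 4.6 nM final (0.5% DMSO) for 120 h at 37° C, 5% CO2. CellTiter-Glo luminescence converted to % inhibition against DMSO and cell-free controls; IC50 by curve fit.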

In another test the target is ERK1 (Homo sapiens, UniProt P27361). The test can be described thus: Kinase assay (Caliper, FAM-labeled peptide), ERK1. Format: biochemical. Put shortly:
(§1)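 Kinase preincubated 10 min at room temperature with serially diluted compound before FAM-labeled peptide plus ATP added; reaction run at 28 °C, then stopped. Substrate conversion read by Caliper mobility shift, normalized to DMSO and low controls, curve-fitted for IC50.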

The target in the next test is ERK2 (Homo sapiens, UniProt P28482). The test can be described thus: Kinase assay (Caliper, FAM-labeled peptide), ERK2. Format: biochemical. A digest of the protocol:
as §1

In a further test the test system is HCT 116 cells. The experiment in a line: Cell proliferation assay (HCT 116), Cell-titer Glo. To be noted: Homo sapiens, 120 h incubation. Format: cell-based. The protocol:
The HCT 116 cells were paved in a 96-well plate at 1200 cells, 160 μL/well. After incubating overnight, the compound solutions of gradient concentration was prepared, and 40 μL of DMSO solution of the test compound of each concentration was added to the cells of each well. The final concentration of the compound was 30000, 10000, 3333.3, 1111.1, 370.4, 123.5, 41.2, 13.7, 4.6, 0 nM (the final concentration of DMSO was 0.5%). 5% CO2 was incubated for 120 h at 37° C. 50 μL of Cell-titer Glo working solution was added to each well, shaked and mixed, and incubated at room temperature for 10 minutes. The multi-functional microplate reader read the luminescence value, and converted the luminescence value reading into inhibition percentage. Inhibition percentage=(maximum value−reading)/(maximum value−minimum value)*100.
The “maximum value” was the DMSO control, the “minimum value” indicated the cell-free control group.
Graphpad Prism software was used to perform curve fitting and obtain IC50 value.

pIC50: −log10 of the molar value.

Chain of ERK1 (P27361 whole entry): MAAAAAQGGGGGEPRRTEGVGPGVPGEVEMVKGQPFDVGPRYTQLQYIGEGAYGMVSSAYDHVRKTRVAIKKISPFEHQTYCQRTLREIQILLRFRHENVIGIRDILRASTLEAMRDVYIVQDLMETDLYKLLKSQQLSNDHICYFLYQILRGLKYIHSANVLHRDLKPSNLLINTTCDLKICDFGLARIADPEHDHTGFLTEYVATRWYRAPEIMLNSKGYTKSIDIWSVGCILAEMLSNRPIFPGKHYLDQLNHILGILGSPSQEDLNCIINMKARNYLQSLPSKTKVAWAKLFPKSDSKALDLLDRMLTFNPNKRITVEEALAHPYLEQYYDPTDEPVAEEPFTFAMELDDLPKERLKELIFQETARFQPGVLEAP
Chain of ERK2 (P28482 whole entry): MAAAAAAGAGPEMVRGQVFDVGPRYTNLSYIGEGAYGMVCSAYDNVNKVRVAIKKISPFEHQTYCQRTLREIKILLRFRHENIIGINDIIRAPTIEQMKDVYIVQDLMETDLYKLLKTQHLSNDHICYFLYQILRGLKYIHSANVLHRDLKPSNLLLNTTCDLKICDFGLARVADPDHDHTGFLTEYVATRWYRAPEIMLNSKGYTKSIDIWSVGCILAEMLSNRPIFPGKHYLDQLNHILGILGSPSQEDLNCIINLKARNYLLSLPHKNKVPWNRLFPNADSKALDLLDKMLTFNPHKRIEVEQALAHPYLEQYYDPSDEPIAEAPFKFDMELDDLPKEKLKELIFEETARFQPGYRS

On to `COC[C@H]1Cn2cc(-c3cc(Nc4ccnn4C)ncc3Cl)cc2C(=O)N1Cc1cc(F)ccc1CO` [Example 45, (R)-7-(5-chloro-2-((1-methyl-1H-pyrazol-5-yl)amino)pyridin-4-yl)-2-(5-fluoro-2-(hydroxymethyl)benzyl)-3-(methoxymethyl)-3,4-dihydropyrrolo[1,2-a]pyrazine-1(2H)-one], for which the pIC50 was 8.48 in the test on COLO205 cells and 8.21 with HCT 116 cells. Further, the IC50 at ERK1 is 0.9 nM; at ERK2, 1.2 nM.
Turning to `Cn1nccc1Nc1cc(-c2cc3n(c2)CCN(Cc2cc(F)c(F)cc2CO)C3=O)c(Cl)cn1` [Example 160, 7-(5-chloro-2-((1-methyl-1h-pyrazole-5-yl)amino)pyridine-4-yl)-2-(4,5-difluoro-2-(hydroxymethyl)benzyl)-3,4-dihydropyrrolo[1,2-a] pyrazine-1(2H)-one], the pIC50 is 7.94 with COLO205 cells and 7.97 in the test on HCT 116 cells. The same molecule registered an IC50 against ERK2 of 0.89 nM.
On to `O=C1c2cc(-c3cc(NC4CCOCC4)ncc3Cl)cn2CCN1Cc1cc(F)ccc1CO` [Example 126, 7-(5-chloro-2-((tetrahydro-2h-pyran-4-yl)amino)pyridine-4-yl)-2-(5-fluoro-2-(hydroxymethyl)benzyl)-3,4-dihydropyrrolo[1,2-a] pyrazine-1(2H)-one], for which the values for the pIC50 with COLO205 cells and in the test with HCT 116 cells were 7.52 and 7.84, respectively. Further, the IC50 on ERK1 was 0.57 nM; on ERK2 it was 0.32 nM.
On the same counts, the results for `CC(C)Nc1cc(-c2cc3n(c2)CC(CO)(CO)CN(Cc2cc(F)ccc2CO)C3=O)c(Cl)cn1` [Example 29, 8-(5-chloro-2-(isopropylamino)pyridin-4-yl)-2-(5-fluoro-2-(hydroxymethyl)benzyl)-4,4-bis (hydroxymethyl)-2,3,4,5-tetrahydro-1h-pyrrolo[1,2-a][1,4] diazepine-1-one] are 8.12, 8.20, 0.68 nM and 0.83 nM.
The like results for `COC[C@H]1Cn2cc(-c3nc(Nc4ccnn4C)ncc3C)cc2C(=O)N1Cc1cc(F)ccc1CO` [Example 35, (R)-2-(5-fluoro-2-(hydroxymethyl)benzyl)-3-(methoxymethyl)-7-(5-methyl-2-((1-methyl-1H-pyrazol-5-yl)amino)pyrimidin-4-yl)-3,4-dihydropyrrolo[1,2-a]pyrazine-1(2H)-one] were, in that order, 7.78, 7.98, 0.84 nM and 0.48 nM.
Consider `COC[C@H]1Cn2cc(-c3cc(Nc4ccnn4C)ncc3Cl)cc2C(=O)N1Cc1cc(F)c(F)c(F)c1CO` [Example 168, (R)-7-(5-chloro-2-((1-methyl-1h-pyrazole-5-yl)amino)pyridine-4-yl)-3-(methoxymethyl)-2-(3,4,5-fluoro-2-(hydroxymethyl)benzyl)-3,4-dihydropyrrolo[1,2-a] pyrazine-1(2H)-one], for which the pIC50 was 7.96 in the test on COLO205 cells and 8.08 in the test on HCT 116 cells. The same molecule came in with an IC50 at ERK2 of 0.59 nM.
Regarding `COC[C@H]1Cn2cc(-c3nc(Nc4ccnn4C)ncc3C(F)(F)F)cc2C(=O)N1Cc1cc(F)ccc1CO` [Example 163, (R)-2-(5-fluoro-2-(hydroxymethyl)benzyl)-3-(methoxymethyl)-7-(2-((1-methyl-1h-pyrazole-5-yl)amino)-5-(trifluoromethyl)pyrimidin-4-yl)-3,4-dihydropyrrolo[1,2-a] pyrazine-1(2H)-one], the pIC50 in the test with COLO205 cells was 7.81; in the test with HCT 116 cells, 7.73. This molecule returned an IC50 at ERK2 of 0.62 nM.
On to `COC[C@H]1Cn2cc(-c3cc(NC4CCOCC4)ncc3Cl)cc2C(=O)N1Cc1cc(F)ccc1CO` [Example 62, (R)-7-(5-chloro-2-((tetrahydro-2h-pyran-4-yl)amino)pyridine-4-yl)-2-(5-fluoro-2-(hydroxymethyl)benzyl)-3-(methoxymethyl)-3,4-dihydropyrrolo[1,2-a] pyrazine-1(2H)-one], for which the negative-log IC50 (pIC50) was 7.76 in the test with COLO205 cells and 8.10 in the test with HCT 116 cells. Moreover, the results for the IC50 on ERK1 and against ERK2 were 0.93 nM and 0.39 nM, respectively.
Consider `Cn1nccc1Nc1cc(-c2cc3n(c2)CCN(Cc2cc(F)ccc2CO)C3=O)c(Cl)cn1` [Example 50, 7-(5-Chloro-2-((1-methyl-1H-pyrazol-5-yl)amino)pyridin-4-yl)-2-(5-fluoro-2-(hydroxymethyl)benzyl)-3,4-dihydropyrrolo[1,2-a]pyrazine-1(2H)-one], for which the results for the negative logarithm of the IC50 (pIC50) with COLO205 cells and with HCT 116 cells were 7.95 and 8.19, respectively. Besides, the 50% inhibitory concentration (IC50) at ERK1 turned out to be 0.72 nM; on ERK2, 0.89 nM.
